Like-named read-outs stand apart in the source and are kept apart here.
Tests used:
[1] = clinical; details: human, in vivo; for Tmax: Tmax (min after EOI)
From the text: (§1) 3 cohorts of subjects, in total 34 healthy adult volunteers, were recruited for Part A study.
(§2) Part B was an open label non-randomized crossover in a cohort of 6 evaluable healthy adult volunteers.

[2] = tested on: porcine model; assay: Slow versus rapid IV infusion, porcine model; assay type: in vivo, pig; details: slow (10 min) vs rapid (2 min) IV infusion
[3] = in vivo
From the text: as §1, §2

[4] = tested on: healthy volunteers; details: human, in vivo
From the text: as §1, §2
Adverse events were monitored and recorded.

[5] = both, human, inhaled or intranasal, 20 mg
[6] = both, human, inhaled or intranasal, 40 mg
[7] = both, human, inhaled or intranasal, 60 mg
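For Cmax of the two excluded subjects in this document: measured in healthy adult volunteers.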
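For Dist. t1/2α in this document: measured in healthy adult volunteers.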
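For Elim. t1/2β in this document: measured in healthy adult volunteers.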
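For Tmax (min after EOI) in this document: measured in healthy adult volunteers.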
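For Tmax in excluded subjects in this document: measured in healthy adult volunteers.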
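For Tmax in this document: measured in healthy adult volunteers.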
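For concentration-time profile curves, IV normalized to 30 mg vs inhaled 30 mg eTLD in this document: measured in healthy adult volunteers.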
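For dose dependence of Cmax and AUCLast in this document: measured in healthy adult volunteers.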
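For dose dependence of distribution phase and elimination half-life in this document: measured in healthy adult volunteers.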
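For dose proportionality of venous plasma concentrations in this document: measured in healthy adult volunteers.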
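For elimination t1/2β in this document: measured in healthy adult volunteers.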
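For plasma concentration in subjects with near-equal ΔQRS (12.0 to 16 msec) in this document: measured in healthy adult volunteers.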
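For venous plasma concentration-time curves, inhaled vs IV in this document: measured in healthy adult volunteers.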

- half-life ([1]; both): 3.5 to 4.2 min
- half-life ([1]; inhaled or intranasal, 30 mg): 4.67 min
- Tmax ([1]; inhaled or intranasal, 30 mg): ≤ 1 min
- half-life ([1]; iv, 2 mg/kg): 4.28 min
- Tmax ([1]; iv, 2 mg/kg): 1 to 60 min
- pH of solution in water (2.6 mg/mL solution): 5.0
- appearance of solution (diltiazem hydrochloride 50 mg/ml, flecainide acetate 30 mg/ml in distilled water): clear with no visible particulate matter
- elimination t1/2β ([3]; both, human): 540 to 720 min
- Cmax of the two excluded subjects ([3]; both, human, 40 mg): 43.5 ng/mL
- Cmax of the two excluded subjects ([3]; both, human, 60 mg): 51.3 ng/mL
- Tmax in excluded subjects ([3]; both, human, 60 mg): greater than 15 minutes
- Dist. t1/2α [3, 5]: 3.86 (34) min
- Elim. t1/2β [3, 5]: 9.87 (25) hours
- Dist. t1/2α [3, 6]: 4.19 (39) min
- Elim. t1/2β [3, 6]: 9.0 (24) hours
- Dist. t1/2α [3, 7]: 3.47 (17) min
- Elim. t1/2β [3, 7]: 12.0 (14) hours
- dose dependence of Cmax and AUCLast ([3]; human): dose-dependent
- dose dependence of distribution phase and elimination half-life ([3]; human): independent of the doses
- plasma concentration in subjects with near-equal ΔQRS (12.0 to 16 msec) ([3]; human): 85 ± 40.3 ng/mL
- Tmax (min after EOI) ([3]; human, inhaled or intranasal, 30 mg): 0.5 (0, 1) min
- plasma concentration in subjects with near-equal ΔQRS (12.0 to 16 msec) ([3]; human, iv): 222 ± 23 ng/mL
- Tmax (min after EOI) ([3]; human, iv, 2 mg/kg): 1 (0, 60) min
- dose proportionality of venous plasma concentrations [3]: near dose proportionality
- venous plasma concentration-time curves, inhaled vs IV ([3]; 2 mg/kg): similar
- concentration-time profile curves, IV normalized to 30 mg vs inhaled 30 mg eTLD ([3]; iv): near-identical
- subjects with study-drug related Cough ([4]; both): 12%
- subjects with study-drug related Dizziness ([4]; both): 12%
- subjects with study-drug related Dry mouth ([4]; both): 12%
- subjects with study-drug related Dysgeusia ([4]; both): 8%
- subjects with study-drug related Dyspnoea (shortness of breath) ([4]; both): 16%
- subjects with study-drug related Headache ([4]; both): 8%
- subjects with study-drug related Oropharyngeal discomfort ([4]; both): 40%
- average events per subject [4]: 2
- probably study-drug related oropharyngeal discomfort (events) [4]: 4
- study-drug related paresthesia oral (events) [4]: 3
- average events per subject ([4]; iv): 7
- study-drug related application site coldness (occurrences) ([4]; iv): 2
- study-drug related dizziness (events) ([4]; iv): 6
- study-drug related headache (events) ([4]; iv): 5
- study-drug related peripheral coldness, palpitations, and chest discomfort, occurrences each ([4]; iv): 2
- systolic BP in subject whose IV infusion was interrupted for hypotension ([4]; iv): < 65 mmHg
SMILES: O=C(NCC1CCCCN1)c1cc(OCC(F)(F)F)ccc1OCC(F)(F)F (centres unmarked) [flecainide]
- correlation of venous plasma levels with QRS duration [2]: positively correlated with QRS duration
- Adverse Event: Cough ([4]; both): 1
- Adverse Event: Lightheadedness ([4]; both): 1
- Number of Moderate or Severe TEAEs ([4]; both): 3
- Number of Study Drug Related TEAEs ([4]; both): 43
- Number of Study Drug Related, Moderate or Severe TEAEs ([4]; both): 2
- Number of TEAEs ([4]; both): 59
- Subjects with at least one Moderate or Severe TEAE ([4]; both): 2 (8) n (%)
- Subjects with at least one Study Drug Related TEAE ([4]; both): 22 (80) n (%)
- Subjects with at least one Study Drug Related, Moderate or Severe TEAE ([4]; both): 1 (4) n (%)
- Subjects with at least one TEAE ([4]; both): 22 (88) n (%)
- TEAE: Catheter site pain ([4]; both): 2 (8) [2] n (%) [events]
- TEAE: Cough ([4]; both): 3 (12) [4] n (%) [events]
- TEAE: Diarrhoea ([4]; both): 2 (8) [2] n (%) [events]
- TEAE: Dizziness ([4]; both): 3 (12) [3] n (%) [events]
- TEAE: Dry mouth ([4]; both): 3 (12) [3] n (%) [events]
- TEAE: Dysgeusia ([4]; both): 2 (8) [2] n (%) [events]
- TEAE: Dyspnoea ([4]; both): 6 (24) [6] n (%) [events]
- TEAE: Gastrointestinal disorders ([4]; both): 8 (32) [11] n (%) [events]
- TEAE: General disorders and administration site conditions ([4]; both): 3 (12) [4] n (%) [events]
- TEAE: Headache ([4]; both): 4 (16) [5] n (%) [events]
- TEAE: Nervous system disorders ([4]; both): 8 (32) [11] n (%) [events]
- TEAE: Oropharyngeal discomfort ([4]; both): 11 (44) [11] n (%) [events]
- TEAE: Respiratory, thoracic and mediastinal disorders ([4]; both): 17 (68) [25] n (%) [events]
- duration of the majority of adverse events ([4]; both): 15 to 90 min
- TEAE: Hypoaesthesia oral ([4]; 2 mg/kg): 1 (14) [1] n (%) [events]
- TEAE: Paraesthesia oral ([4]; 2 mg/kg): 3 (43) [3] n (%) [events]
- severe and moderate AEs probably related to study drug ([4]; iv): 1 severe and 2 moderate intensity AEs
- Number of Moderate or Severe TEAEs ([4]; iv, 2 mg/kg): 4
- Number of Related TEAEs ([4]; iv, 2 mg/kg): 35
- Number of Related, Moderate or Severe TEAEs ([4]; iv, 2 mg/kg): 4
- Number of SAEs ([4]; iv, 2 mg/kg): 0

— patent publication US20230092389A1, “UNIT DOSES, AEROSOLS, KITS, AND METHODS FOR TREATING HEART CONDITIONS BY PULMONARY ADMINISTRATION” (InCarda Therapeutics, Inc., priority 2017, published 2023)
